{"source": "patent US11576911B2", "about": "“Composition and method for treatment of depression and psychosis in humans” (Glytech LLC, priority 2012, dated 2023)", "key": {"Male C57Bl/6J mice [1]": {"tested_on": "Male C57Bl/6J mice", "assay": "Elevated plus maze (EPM), DOI 2 mg/kg in all conditions", "assay_type": "in vivo", "conditions": "for Distance Traveled Open (DTO) Mean / Percent open (PCT) Mean: Table 1"}, "Male BalbC/J mice": {"tested_on": "Male BalbC/J mice", "assay": "Rodent forced swim test (FST), immobility time", "assay_type": "in vivo", "description": "Male BalbC/J mice (8 weeks old) from Jackson Laboratories (Bar Harbor, Me.) were used. Upon receipt, mice were assigned unique identification numbers (tail marked) and were group housed in OPTImice cages. All animals were acclimated to the colony room for 1 week prior to testing. During the period of acclimation, animals were examined on a regular basis, handled, and weighed to assure adequate health and suitability. Animals were maintained on a 12/12 light/dark cycle. The room temperature was maintained between 20 and 23° C. with a relative humidity maintained between 30% and 70%. Chow and water were provided ad libitum for the duration of the study. All testing was performed during the animal's light cycle phase.\nMice were acclimated to the test room at least 1 hour prior to commencing the test. The forced swimming test consisted of one 6-minute session of forced swimming in individual opaque cylinders (15 cm tall×10 cm wide, 1000 ml beakers) containing fresh tap water at a temperature of 23±2° C. and a depth of 12 cm (approximately 800 ml) for each test animal. The time the animal spent immobile was recorded over the 6 min trial. Every 1 min the cumulative immobility time was recorded from the start of the session and noted on the study data record sheet. Immobility was defined as the postural position of floating in the water. The animals were generally observed with the back slightly hunched and the head above water with no movements or with small stabilizing movements of the limbs. After the swim test, each animal was placed in a pre-heated cage with a heating pad and allowed to dry.\nThe main variable used to represent immobility in this test was the total time immobile during the 6-min test period. Statistics were performed by analysis of variance (ANOVA) with Dunnett post-hoc testing vs. the control condition or by t-test as appropriate.\nSertraline, a known antidepressant, is used as a positive control.\nFor this study, further NMDAR antagonist compounds were tested for their ability to reduce immobility time in the rodent FST test, indicative of potential anti-depressant effects, and further 5-HT2AR antagonists were tested for their ability to produce reductions of time spent in the open arms of the EPM, indicative to potential liability to induce anxiety, akathisia and suicidality in humans"}, "[2]": {"assay": "Pharmacokinetics of D-cycloserine in rodents (plasma, IP)", "assay_type": "in vivo, mice", "method": "For this study, male C57BL/6J mice (8 weeks old) from Jackson Laboratories (Bar Harbor, Me.) were used.\nFor each treatment group a total of 12 mice were dosed: 4 mice were collected at 30, 60 and 120 min. Mean plasma level was computed over this time period."}, "Male C57Bl/6J mice [3]": {"tested_on": "Male C57Bl/6J mice", "conditions": "previously demonstrated, cited from earlier work"}, "[4]": {"conditions": "cited from earlier work; for Serum concentration: mean dose 8.8 mg/kg, patients (Hung et al.)"}, "[5]": {"conditions": "acidic gastric conditions, gastric emptying up to 3 hours; cited from earlier work"}, "[6]": {"assay": "Pharmacokinetics of D-cycloserine in humans (literature)"}}, "note": "Read-outs that look alike come from different tables or passages of the source."}
{"smiles": "N[C@@H]1CON=C1O", "note": "[D-cycloserine, 3-Isoxazolidinone, 4-amino-, (4R)-(9CI)]", "values": [{"measurement": "Reversal of the effects of MDL100,907 in the EPM, in words", "setting": "Male C57Bl/6J mice [1]; DCS 300 mg/kg vs 30 mg/kg with MDL100,907 (Table 1 lines 6,7)", "value": "significantly reverses the effects of MDL100,907 at a dose of 300 mg/kg, but not 30 mg/kg"}, {"measurement": "Effect in the EPM in the presence of aripiprazole, in words", "setting": "Male C57Bl/6J mice [1]; DCS 300 mg/kg with aripiprazole 1 mg/kg", "value": "no significant effect"}, {"measurement": "Reversal of the effects of lurasidone in the EPM, in words", "setting": "Male C57Bl/6J mice [1]; DCS 300 mg/kg with lurasidone 0.1-0.3 mg/kg", "value": "significantly reverses the effects of lurasidone"}, {"measurement": "Reversal of the effects of quetiapine in the EPM, in words", "setting": "Male C57Bl/6J mice [1]; DCS 300 mg/kg with quetiapine 30 mg/kg", "value": "reversed at trend level"}, {"measurement": "Distance Traveled Open (DTO) Mean", "setting": "Male C57Bl/6J mice [1]; 30 mg/kg ip alone", "value": 295.8}, {"measurement": "Percent open (PCT) Mean", "setting": "Male C57Bl/6J mice [1]; 30 mg/kg ip alone", "value": 44.6, "unit": "%"}, {"measurement": "Distance Traveled Open (DTO) Mean", "setting": "Male C57Bl/6J mice [1]; 300 mg/kg ip alone", "value": 287.5}, {"measurement": "Percent open (PCT) Mean", "setting": "Male C57Bl/6J mice [1]; 300 mg/kg ip alone", "value": 45.4, "unit": "%"}, {"measurement": "Mean distance travelled in the open arm of the EPM", "setting": "Male C57Bl/6J mice [1]; Table 6, 300 mg/kg, DOI 2 mg/kg added", "value": 369.70}, {"measurement": "Effect on distance travelled in open arm / % time in open arm of EPM, in words", "setting": "Male C57Bl/6J mice [1]; agent alone vs control, doses of Tables 1 and 2", "value": "selectively increases % time in open arms at a dose of 300 mg/kg but not at a dose of 30 mg/kg"}, {"measurement": "Effect on immobility in the forced swim test, in words", "setting": "Male BalbC/J mice; DCS 30 mg/kg in combination with lurasidone", "value": "did not significantly reduce immobility"}, {"measurement": "Effect in the forced swim test assay, in words", "setting": "Male BalbC/J mice; DCS 30 mg/kg, IP or PO (FIGS. 1 and 2)", "value": "no significant effect"}, {"measurement": "Effect in the forced swim test assay, in words", "setting": "Male BalbC/J mice; DCS 100 mg/kg or above, PO or IP (FIGS. 1 and 2)", "value": "highly significant"}, {"measurement": "Effect on immobility in the forced swim test, in words", "setting": "Male BalbC/J mice; DCS 300 mg/kg in combination with aripiprazole", "value": "did not significantly reduce immobility"}, {"measurement": "Effect on immobility in the forced swim test, in words", "setting": "Male BalbC/J mice; DCS 300 mg/kg in combination with brexpiprazole", "value": "significantly reduced immobility"}, {"measurement": "Effect on immobility in the forced swim test, in words", "setting": "Male BalbC/J mice; DCS 300 mg/kg in combination with lurasidone 0.2 to 3 mg/kg", "value": "significantly reduced immobility"}, {"measurement": "Mean plasma level over 30-120 min", "setting": "[2]; 30 mg/kg IP, mice", "value": "below 25 microgram/mL"}, {"measurement": "Plasma levels over 30-120 min", "setting": "[2]; doses of 100 mg/kg or above IP, mice", "value": "greater than 25 microgram/mL"}, {"measurement": "Maximum tolerated blood level", "setting": "[2]; suggested from maximum tolerated dose", "value": "approximately 125 ug/mL"}, {"measurement": "Distance travelled in the open arm and % time in the open arms, in words", "setting": "Male C57Bl/6J mice [3]; DCS 300 mg/kg in combination with EMD281,014", "value": "numerical increases"}, {"measurement": "Distance travelled in the open arm and % time in the open arms, in words", "setting": "Male C57Bl/6J mice [3]; DCS 300 mg/kg in the presence of MDL100,907", "value": "significantly increased"}, {"measurement": "Serum concentration", "setting": "[4]; 2 hr after dosing", "value": 19.7, "unit": "microgram/mL"}, {"measurement": "Serum concentration", "setting": "[4]; 6 hr after dosing", "value": 18.1, "unit": "microgram/mL"}, {"measurement": "AUC over 24 hr, median", "setting": "[4]; single 500 mg dose, fasting, humans (Zhu et al.)", "value": 214, "unit": "microgram-hr/mL"}, {"measurement": "Hydrolysis of orally administered D-cycloserine during gastric emptying", "setting": "[5]", "value": "up to 50%"}, {"measurement": "Sustained blood levels", "setting": "[6]; 500 mg/day, human PK studies", "value": "below 25 microgram/mL"}, {"measurement": "Sustained plasma level, median", "setting": "[6]; corresponding to AUC over 24 hr, 500 mg (Zhu et al.)", "value": 8.9, "unit": "microgram/mL"}, {"measurement": "Human dose required to produce a serum level in excess of 25 microgram/mL", "setting": "[6]; from dose-serum concentration relationship of Hung et al.", "value": "exceeding 10 mg/kg"}]}
